Laboratory results reported in PMC5389830, “Longitudinal monitoring of Gaussia and Nano luciferase activities to concurrently assess ER calcium homeostasis and ER stress in vivo” (PLoS ONE, 2017).

Molecular target: T1, GLuc (Gaussia luciferase) (Gaussia princeps (in: crustaceans), UniProt Q9BLZ2)
T1 construct: secreted GLuc without SERCaMP peptide, in culture medium of transfected SH-SY5Y cells
T1 sequence (Q9BLZ2 18-185): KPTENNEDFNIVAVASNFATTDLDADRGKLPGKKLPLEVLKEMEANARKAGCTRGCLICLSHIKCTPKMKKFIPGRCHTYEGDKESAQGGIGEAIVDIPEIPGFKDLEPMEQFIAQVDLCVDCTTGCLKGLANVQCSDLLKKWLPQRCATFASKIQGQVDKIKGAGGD
Test: luminescence, culture medium of transfected SH-SY5Y cells
Assay type: biochemical
Details: 8 μM coelenterazine; flash kinetics

## Oc1ccc(Cc2nc3c(Cc4ccccc4)nc(-c4ccc(O)cc4)cn3c2O)cc1 [coelenterazine]
  luminescence, culture medium of transfected SH-SY5Y cells: GLuc and secNLuc both showed activity towards CTZ, with GLuc exhibiting flash kinetics
